Assay results from patent publication US12098148B2, “Therapeutic compounds” (C4X Discovery Limited, priority 2018, dated 2024).
pEC50, pIC50: −log10 of the molar value.

Key:
[1] = system: NQO1 mRNA in BEAS-2B cells; test: Beas2B NQO1 mRNA cell based assay; parameters: species or system human; details: Homo sapiens, BEAS-2B, 24 h, 24 h compound treatment, increase in NQO1 mRNA vs vehicle (0.1% DMSO), read-out: EC50
Outline: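 Relative NQO1 transcript level derived by ΔΔCT with human β-actin as internal control, using direct-lysate one-step RT-qPCR. Cells were BEAS-2B, plated overnight then treated with compound for 24 h.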

[2] = biological target: human KEAP1 (N-term, residues 321-609) (Homo sapiens, UniProt Q14145); test: biochemical;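 further: fluorescence polarization competition assay of Kelch domain binding to NRF2, 12-point 1:3 dilution series from 10 µM, read after 1 h at room temperature, floor 10 nM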
Sequence of human KEAP1 (N-term, residues 321-609) (Q14145 321-609): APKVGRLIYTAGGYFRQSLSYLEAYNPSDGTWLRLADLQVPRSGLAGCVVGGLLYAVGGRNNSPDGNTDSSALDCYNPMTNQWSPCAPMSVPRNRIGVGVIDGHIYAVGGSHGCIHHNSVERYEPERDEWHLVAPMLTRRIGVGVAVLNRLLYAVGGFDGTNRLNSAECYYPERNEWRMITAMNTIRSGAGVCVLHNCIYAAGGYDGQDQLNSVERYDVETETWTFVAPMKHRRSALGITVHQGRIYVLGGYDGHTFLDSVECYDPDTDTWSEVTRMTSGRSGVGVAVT

Work on `Cn1cc(COc2ccc(Cl)c3c2[C@@H](CN2CC4(CC4)CC2=O)N(C(=O)[C@@H]2CCCC[C@]2(C)C(=O)O)CC3)nn1` [Example 158, (1S,2R)-2-((S)-5-chloro-8-((1-methyl-1H-1,2,3-triazol-4-yl)methoxy)-1-((6-oxo-5-azaspiro[2.4]heptan-5-yl)methyl)-1,2,3,4-tetrahydroisoquinoline-2-carbonyl)-1-methylcyclohexane-1-carboxylic acid] yielded a pEC50 [1] of 8.92 and a pIC50 [2] of 8.20.
Work on `Cn1nnc(COc2ccc(Cl)c3c2[C@@H](CN2CC4(CC4)CC2=O)N(C(=O)[C@@H]2CCCC[C@]2(C)C(=O)O)CC3)c1C1CC1` [Example 159, (1S,2R)-2-((S)-5-chloro-8-((5-cyclopropyl-1-methyl-1H-1,2,3-triazol-4-yl)methoxy)-1-((6-oxo-5-azaspiro[2.4]heptan-5-yl)methyl)-1,2,3,4-tetrahydroisoquinoline-2-carbonyl)-1-methylcyclohexane-1-carboxylic acid] yielded a pEC50 [1] of 9.66 and a pIC50 [2] of 8.17.
Compound `COCc1c(COc2ccc(Cl)c3c2[C@@H](CN2CC4(CC4)CC2=O)N(C(=O)[C@@H]2CCCC[C@]2(C)C(=O)O)CC3)nnn1C` [Example 160, (1S,2R)-2-((S)-5-chloro-8-((5-(methoxymethyl)-1-methyl-1H-1,2,3-triazol-4-yl)methoxy)-1-((6-oxo-5-azaspiro [2.4]heptan-5-yl)methyl)-1,2,3,4-tetrahydroisoquinoline-2-carbonyl)-1-methylcyclohexane-1-carboxylic acid] has a pEC50 [1] of 9.14 and a pIC50 [2] of 8.30.
`C[C@@H]1CC(=O)N(C[C@@H]2c3c(OCc4cn(C)nn4)ccc(Cl)c3CCN2C(=O)[C@@H]2CCCC[C@]2(C)C(=O)O)C1` [Example 161, (1S,2R)-2-((S)-5-chloro-8-((1-methyl-1H-1,2,3-triazol-4-yl)methoxy)-(((R)-4-methyl-2-oxopyrrolidin-1-yl)methyl)-1,2,3,4-tetrahydroisoquinoline-2-carbonyl)-1-methylcyclohexane-1-carboxylic acid] gave a pEC50 [1] of 7.96 and a pIC50 [2] of 8.10.
For `COCc1c(COc2ccc(Cl)c3c2[C@@H](CN2C[C@H](C)CC2=O)N(C(=O)[C@@H]2CCCC[C@]2(C)C(=O)O)CC3)nnn1C` [Example 162, (1S,2R)-2-((S)-5-chloro-8-((5-(methoxymethyl)-1-methyl-1H-1,2,3-triazol-4-yl)methoxy)-1-(((R)-4-methyl-2-oxopyrrolidin-1-yl)methyl)-1,2,3,4-tetrahydroisoquinoline-2-carbonyl)-1-methylcyclohexane-1-carboxylic acid], the pEC50 [1] was 8.62 and the pIC50 [2] was 8.20.
`C[C@@H]1CC(=O)N(C[C@@H]2c3c(OCc4nnn(C)c4C4CC4)ccc(Cl)c3CCN2C(=O)[C@@H]2CCCC[C@]2(C)C(=O)O)C1` [Example 163, (1S,2R)-2-((S)-5-chloro-8-((5-cyclopropyl-1-methyl-1H-1,2,3-triazol-4-yl)methoxy)-1-(((R)-4-methyl-2-oxopyrrolidin-1-yl)methyl)-1,2,3,4-tetrahydroisoquinoline-2-carbonyl)-1-methylcyclohexane-1-carboxylic acid] was tested, and the pEC50 [1] was 9.11 and the pIC50 [2] was 8.28.
`C[C@]1(C(=O)O)CCCC[C@H]1C(=O)N1CCc2c(Cl)ccc(OCc3noc4c(F)cccc34)c2[C@H]1CN1CCCC1=O` [Example 164, (1S,2R)-2-((S)-5-chloro-8-((7-fluorobenzo[d]isoxazol-3-yl)methoxy)-1-((2-oxopyrrolidin-1-yl)methyl)-1,2,3,4-tetrahydroisoquinoline-2-carbonyl)-1-methylcyclohexane-1-carboxylic acid] gave a pEC50 [1] of 8.59 and a pIC50 [2] of 8.22.
`C[C@]1(C(=O)O)CCCC[C@H]1C(=O)N1CCc2c(Cl)ccc(OCc3noc4c(F)c(F)ccc34)c2[C@H]1CN1CCCC1=O` [Example 165, (1S,2R)-2-((S)-5-chloro-8-((6,7-difluorobenzo[d]isoxazol-3-yl)methoxy)-1-((2-oxopyrrolidin-1-yl)methyl)-1,2,3,4-tetrahydroisoquinoline-2-carbonyl)-1-methylcyclohexane-1-carboxylic acid] gave a pEC50 [1] of 7.96 and a pIC50 [2] of 8.08.
Compound `Cc1cc(COc2ccc(Cl)c3c2[C@@H](CN2CCCC2=O)N(C(=O)[C@@H]2CCCC[C@]2(C)C(=O)O)CC3)no1` [Example 166, (1S,2R)-2-((S)-5-chloro-8-((5-methylisoxazol-3-yl)methoxy)-1-((2-oxopyrrolidin-1-yl)methyl)-1,2,3,4-tetrahydroisoquinoline-2-carbonyl)-1-methylcyclohexane-1-carboxylic acid] has a pEC50 [1] of 7.40 and a pIC50 [2] of 8.12.
`Cc1noc(COc2ccc(Cl)c3c2[C@@H](CN2CCCC2=O)N(C(=O)[C@@H]2CCCC[C@]2(C)C(=O)O)CC3)n1` [Example 167, (1S,2R)-2-((S)-5-chloro-8-((3-methyl-1,2,4-oxadiazol-5-yl)methoxy)-1-((2-oxopyrrolidin-1-yl)methyl)-1,2,3,4-tetrahydroisoquinoline-2-carbonyl)-1-methylcyclohexane-1-carboxylic acid] was tested, and the pEC50 [1] was 6.55 and the pIC50 [2] was 7.80.
`Cc1nc(COc2ccc(Cl)c3c2[C@@H](CN2CCCC2=O)N(C(=O)[C@@H]2CCCC[C@]2(C)C(=O)O)CC3)no1` [Example 168, (1S,2R)-2-((S)-5-chloro-8-((5-methyl-1,2,4-oxadiazol-3-yl)methoxy)-1-((2-oxopyrrolidin-1-yl)methyl)-1,2,3,4-tetrahydroisoquinoline-2-carbonyl)-1-methylcyclohexane-1-carboxylic acid] was tested, and the pEC50 [1] was 7.07 and the pIC50 [2] was 8.07.
`Cn1nnc(COc2ccc(Cl)c3c2[C@@H](CN2CCCC2=O)N(C(=O)[C@H]2CCCC[C@]2(C)C(=O)O)CC3)c1C(F)(F)F` [Example 169, (1S,2S)-2-((S)-5-chloro-8-((1-methyl-5-(trifluoromethyl)-1H-1,2,3-triazol-4-yl)methoxy)-1-((2-oxopyrrolidin-1-yl)methyl)-1,2,3,4-tetrahydroisoquinoline-2-carbonyl)-1-methylcyclohexane-1-carboxylic acid] was tested, and the pEC50 [1] was 6.85 and the pIC50 [2] was 7.21.
Work on `C[C@]1(C(=O)O)CCCC[C@H]1C(=O)N1CCc2c(Cl)ccc(OCc3nnn4c3CCCC4)c2[C@H]1CN1CC2(CC2)CC1=O` [Example 170, (1S,2R)-2-((S)-5-chloro-1-((6-oxo-5-azaspiro[2.4]heptan-5-yl)methyl)-8-((4,5,6,7-tetrahydro-[1,2,3]triazolo[1,5-a]pyridin-3-yl)methoxy)-1,2,3,4-tetrahydroisoquinoline-2-carbonyl)-1-methylcyclohexane-1-carboxylic acid] yielded a pEC50 [1] of 9.96 and a pIC50 [2] of 8.18.
In the case of `C[C@]1(C(=O)O)CCCC[C@H]1C(=O)N1CCc2c(Cl)ccc(OCc3cncnc3C(F)(F)F)c2[C@H]1CN1CC2(CC2)CC1=O` [Example 171, (1S,2R)-2-((S)-5-chloro-1-((6-oxo-5-azaspiro[2.4]heptan-5-yl)methyl)-8-((4-(trifluoromethyl)pyrimidin-5-yl)methoxy)-1,2,3,4-tetrahydroisoquinoline-2-carbonyl)-1-methylcyclohexane-1-carboxylic acid], the pEC50 [1] was 7.72 and the pIC50 [2] was 8.19.
With `C[C@]1(C(=O)O)CCCC[C@H]1C(=O)N1CCc2c(Cl)ccc(OCc3nnn(C4CC4)c3C(F)F)c2[C@H]1CN1CC2(CC2)CC1=O` [Example 172, (1S,2R)-2-((S)-5-chloro-8-((1-cyclopropyl-5-(difluoromethyl)-1H-1,2,3-triazol-4-yl)methoxy)-1-((6-oxo-5-azaspiro [2.4]heptan-5-yl)methyl)-1,2,3,4-tetrahydroisoquinoline-2-carbonyl)-1-methylcyclohexane-1-carboxylic acid] the pEC50 [1] was 8.96 and the pIC50 [2] was 8.22.
`CN(C)CCn1cc(COc2ccc(Cl)c3c2[C@@H](CN2CC4(CC4)CC2=O)N(C(=O)[C@@H]2CCCC[C@]2(C)C(=O)O)CC3)nn1` [Example 173, (1S,2R)-2-((S)-5-chloro-8-((1-(2-(dimethylamino)ethyl)-1H-1,2,3-triazol-4-yl)methoxy)-1-((6-oxo-5-azaspiro[2.4]heptan-5-yl)methyl)-1,2,3,4-tetrahydroisoquinoline-2-carbonyl)-1-methylcyclohexane-1-carboxylic acid] was tested, and the pEC50 [1] was 7.46 and the pIC50 [2] was 8.19.
`Cc1ccc(OCc2nnn(C)c2C(F)(F)F)c2c1CCN(C(=O)[C@@H]1CCCC[C@]1(C)C(=O)O)[C@@H]2CN1CCCC1=O` [Example 174, (1S,2R)-1-Methyl-2-((S)-5-methyl-8-((1-methyl-5-(trifluoromethyl)-1H-1,2,3-triazol-4-yl)methoxy)-1-((2-oxopyrrolidin-1-yl)methyl)-1,2,3,4-tetrahydroisoquinoline-2-carbonyl)cyclohexane-1-carboxylic acid] was tested, and the pEC50 [1] was 8.18 and the pIC50 [2] was 7.96.
For `Cn1cnnc1COc1ccc(Cl)c2c1[C@@H](CN1CC3(CC3)CC1=O)N(C(=O)[C@@H]1CCCC[C@]1(C)C(=O)O)CC2` [Example 175, (1S,2R)-2-((S)-5-chloro-8-((4-methyl-4H-1,2,4-triazol-3-yl)methoxy)-1-((6-oxo-5-azaspiro [2.4]heptan-5-yl)methyl)-1,2,3,4-tetrahydroisoquinoline-2-carbonyl)-1-methylcyclohexane-1-carboxylic acid], the pEC50 [1] was 7.46 and the pIC50 [2] was 7.85.
In the case of `C[C@]1(C(=O)O)CCCC[C@H]1C(=O)N1CCc2c(Cl)ccc(OCc3nnc4n3CCOC4)c2[C@H]1CN1CC2(CC2)CC1=O` [Example 176, (1S,2R)-2-((S)-5-chloro-8-((5,6-dihydro-8H-[1,2,4]triazolo[3,4-c][1,4]oxazin-3-yl)methoxy)-1-((6-oxo-5-azaspiro [2.4]heptan-5-yl)methyl)-1,2,3,4-tetrahydroisoquinoline-2-carbonyl)-1-methylcyclohexane-1-carboxylic acid], the pEC50 [1] was 8.55 and the pIC50 [2] was 8.21.
